Results published in ChEMBL document CHEMBL5726876, “NHE3-binding compounds and methods for inhibiting phosphate transport” (2019).

Assay: Cell-based activity under Prompt Conditions: Cell-based activity under Prompt Conditions. Rat or human NHE3-mediated Na+-dependent H+ antiport was measured using a modification of the pH sensitive dye method originally reported by Paradiso (PNAS USA. 81:7436-7440, 1984). Opossum kidney (OK) cells were obtained from the ATCC and propagated per their instructions. The rat NHE3 gene (GenBank M85300) or the human NHE3 gene (GenBank NM_004174.1) was introduced into OK cells via electroporation, and cells were seeded into 96 well plates and grown overnight. Medium was aspirated from the wells, cells were washed twice with NaCl-HEPES buffer (100 mM NaCl, 50 mM HEPES, 10 mM glucose, 5 mM KCl, 2 mM CaCl2, 1 mM MgCl2, pH 7.4), then incubated for 30 min at room temperature with NH4Cl-HEPES buffer (20 mM NH4Cl, 80 mM NaCl, 50 mM HEPES, 5 mM KCl, 2 mM CaCl2, 1 mM MgCl2, pH 7.4) containing 5 μM bis(acetoxymethyl) 3,3′-(3′,6′-bis(acetoxymethoxy)-5-((acetoxymethoxy)carbonyl)-3-oxo-3H-spiro[isobenzofuran-1,9′-xanthene]-2′,7′-diyl)dipropanoate (BCECF-AM).Cells were washed twice with Ammonium free, Na+-free HEPES (100 mM choline, 50 mM HEPES, 10 mM glucose, 5 mM KCl, 2 mM CaCl2, 1 mM MgCl2, pH 7.4) and incubated in the same buffer for 10 minutes at room temperature to lower intracellular pH. […] Initial rates were plotted as the average 2 or more replicates, and pIC50 values were estimated using GraphPad Prism.

| SMILES | IC50 [nM] |
| --- | --- |
| CN(C)[C@H]1Cc2c(Cl)cc(Cl)cc2[C@@H]1Oc1ccc(S(=O)(=O)NCCOCCOCCNC(=O)NCCCCNC(=O)NCCOCCOCCNS(=O)(=O)c2ccc(O[C@H]3c4cc(Cl)cc(Cl)c4C[C@@H]3N(C)C)cc2)cc1 | 6.31 |
| CN1Cc2c(Cl)cc(Cl)cc2[C@H](c2cccc(S(=O)(=O)NCCOCCOCCNC(=O)CCC(CCC(=O)NCCOCCOCCNS(=O)(=O)c3cccc([C@@H]4CN(C)Cc5c(Cl)cc(Cl)cc54)c3)(CCC(=O)NCCOCCOCCNS(=O)(=O)c3cccc([C@@H]4CN(C)Cc5c(Cl)cc(Cl)cc54)c3)NC(=O)NCC(=O)O)c2)C1 | 29.5 |
| CN1Cc2c(Cl)cc(Cl)cc2[C@H](c2cccc(S(=O)(=O)NCCOCCOCCNC(=O)CCC(CCC(=O)NCCOCCOCCNS(=O)(=O)c3cccc([C@@H]4CN(C)Cc5c(Cl)cc(Cl)cc54)c3)(CCC(=O)NCCOCCOCCNS(=O)(=O)c3cccc([C@@H]4CN(C)Cc5c(Cl)cc(Cl)cc54)c3)NC(=O)NCCN3CCOCC3)c2)C1 | 63.1 |
| O=C(NCCCCNC(=O)NCCOCCOCCNS(=O)(=O)c1ccc(O[C@H]2c3cc(F)ccc3C[C@@H]2N2CCCCC2)cc1)NCCOCCOCCNS(=O)(=O)c1ccc(O[C@H]2c3cc(F)ccc3C[C@@H]2N2CCCCC2)cc1 | 1.26 |
| CN1Cc2c(Cl)cc(Cl)cc2[C@H](c2cccc(S(=O)(=O)NCCOCCOCCNC(=O)CCC(CCC(=O)NCCOCCOCCNS(=O)(=O)c3cccc([C@@H]4CN(C)Cc5c(Cl)cc(Cl)cc54)c3)(CCC(=O)NCCOCCOCCNS(=O)(=O)c3cccc([C@@H]4CN(C)Cc5c(Cl)cc(Cl)cc54)c3)NC(=O)Cc3nnn[nH]3)c2)C1 | 200 |
| CN1Cc2c(Cl)cc(Cl)cc2[C@H](c2cccc(S(=O)(=O)NCCOCCOCCNC(=O)NCCN(CCNC(=O)NCCOCCOCCNS(=O)(=O)c3cccc([C@@H]4CN(C)Cc5c(Cl)cc(Cl)cc54)c3)CCNC(=O)NCCOCCOCCNS(=O)(=O)c3cccc([C@@H]4CN(C)Cc5c(Cl)cc(Cl)cc54)c3)c2)C1 | 2510 |
| CN1Cc2c(Cl)cc(Cl)cc2[C@H](c2cccc(S(=O)(=O)NCCOCCOCCNC(=O)CCC(CCC(=O)NCCOCCOCCNS(=O)(=O)c3cccc([C@@H]4CN(C)Cc5c(Cl)cc(Cl)cc54)c3)(CCC(=O)NCCOCCOCCNS(=O)(=O)c3cccc([C@@H]4CN(C)Cc5c(Cl)cc(Cl)cc54)c3)NC(=O)CCCC(=O)O)c2)C1 | 50.1 |
| CN1Cc2c(Cl)cc(Cl)cc2C(c2cccc(S(=O)(=O)NCCOCCOCCOCCNC(=O)CCN(CCC(=O)NCCOCCOCCOCCNS(=O)(=O)c3cccc([C@@H]4CN(C)Cc5c(Cl)cc(Cl)cc54)c3)CCC(=O)NCCOCCOCCOCCNS(=O)(=O)c3cccc([C@@H]4CN(C)Cc5c(Cl)cc(Cl)cc54)c3)c2)C1 (stereo not given in full) | 316 |
| CN1Cc2c(Cl)cc(Cl)cc2[C@H](c2cccc(S(=O)(=O)NCCOCCOCCNC(=O)NCCCC(CCCNC(=O)NCCOCCOCCNS(=O)(=O)c3cccc([C@@H]4CN(C)Cc5c(Cl)cc(Cl)cc54)c3)(CCCNC(=O)NCCOCCOCCNS(=O)(=O)c3cccc([C@@H]4CN(C)Cc5c(Cl)cc(Cl)cc54)c3)NC(=O)NC[C@H](O)[C@@H](O)[C@H](O)[C@H](O)CO)c2)C1 | 1580 |
| CCC(=O)NC(CCC(=O)NCCOCCOCCOCCNS(=O)(=O)c1cccc([C@@H]2CN(C)Cc3c(Cl)cc(Cl)cc32)c1)(CCC(=O)NCCOCCOCCOCCNS(=O)(=O)c1cccc([C@@H]2CN(C)Cc3c(Cl)cc(Cl)cc32)c1)CCC(=O)NCCOCCOCCOCCNS(=O)(=O)c1cccc([C@@H]2CN(C)Cc3c(Cl)cc(Cl)cc32)c1 | 79.4 |
| CN1Cc2c(Cl)cc(Cl)cc2[C@H](c2cccc(S(=O)(=O)N(C)CCOCCOCCNC(=O)CCN(CCC(=O)NCCOCCOCCN(C)S(=O)(=O)c3cccc([C@@H]4CN(C)Cc5c(Cl)cc(Cl)cc54)c3)CCC(=O)NCCOCCOCCN(C)S(=O)(=O)c3cccc([C@@H]4CN(C)Cc5c(Cl)cc(Cl)cc54)c3)c2)C1 | 316 |
| CN1Cc2c(Cl)cc(Cl)cc2[C@H](c2cccc(S(=O)(=O)NCCOCCOCCN(C)C(=O)CCC(N)(CCC(=O)N(C)CCOCCOCCNS(=O)(=O)c3cccc([C@@H]4CN(C)Cc5c(Cl)cc(Cl)cc54)c3)CCC(=O)N(C)CCOCCOCCNS(=O)(=O)c3cccc([C@@H]4CN(C)Cc5c(Cl)cc(Cl)cc54)c3)c2)C1 | 15.8 |
| NCCOCCOCCOc1cccc(-c2nc(N=C(N)N)nc3ccc(Cl)cc23)c1 | 224 |
| CN1Cc2c(Cl)cc(Cl)cc2[C@H](c2cccc(S(=O)(=O)NCCOCCOCCNC(=O)CCC(=O)NCCOCCOCCNS(=O)(=O)c3ccc(O[C@H]4c5ccccc5C[C@@H]4N4CCCCC4)cc3)c2)C1 | 31.6 |
| CN1Cc2c(Cl)cc(Cl)cc2[C@H](c2cccc(S(=O)(=O)NCCOCCOCCNC(=O)CCC(CCC(=O)NCCOCCOCCNS(=O)(=O)c3cccc([C@@H]4CN(C)Cc5c(Cl)cc(Cl)cc54)c3)(CCC(=O)NCCOCCOCCNS(=O)(=O)c3cccc([C@H]4c5cc(Cl)cc(Cl)c5CCN4C)c3)NC(=O)N[C@@H](CC(=O)O)C(=O)O)c2)C1 | 25.1 |
| C/C(=C\c1cc(F)c(Oc2ccc(S(=O)(=O)NCCOCCOCCOCCNC(=O)[C@H](O)[C@@H](O)C(=O)NCCOCCOCCOCCNS(=O)(=O)c3ccc(Oc4c(F)cc(/C=C(\C)C(=O)N=C(N)N)cc4F)cc3)cc2)c(F)c1)C(=O)N=C(N)N | 126 |
| CN(CCN(CC(=O)O)CC(=O)NCCOCCOCCNC(=O)NCCOCCOCCOCCN1CCN(c2ccc(-c3nc(N=C(N)N)nc4ccc(Cl)cc34)cc2)CC1)CC(=O)O | 15.8 |
| CN(C)[C@H]1Cc2c(Cl)cc(Cl)cc2[C@@H]1Oc1ccc(S(=O)(=O)NCCOCCOCCNC(=O)C(C)(C)C(=O)NCCOCCOCCNS(=O)(=O)c2ccc(O[C@H]3c4cc(Cl)cc(Cl)c4C[C@@H]3N(C)C)cc2)cc1 | 5.01 |
| CC(C)CCC[C@@H](C)[C@H]1CC[C@H]2[C@@H]3CC=C4C[C@@H](OC(=O)NCCOCCOCCOCCNS(=O)(=O)c5cccc([C@@H]6CN(C)Cc7c(Cl)cc(Cl)cc76)c5)CC[C@]4(C)[C@H]3CC[C@]12C | < 10000 |
| CN(CCN(CC(=O)O)CC(=O)NCCOCCOCCNC(=O)NCCOCCOCCOCCOc1ccc(-c2nc(NC(=N)N)nc3ccc(Cl)cc23)cc1)CC(=O)O | 10 |
| CN(C)[C@H]1Cc2c(Cl)cc(Cl)cc2[C@@H]1Oc1ccc(S(=O)(=O)NCCOCCOCCNC(=O)Nc2ccc(NC(=O)NCCOCCOCCNS(=O)(=O)c3ccc(O[C@H]4c5cc(Cl)cc(Cl)c5C[C@@H]4N(C)C)cc3)cc2)cc1 | < 10000 |
| C/C(=C\c1cc(F)c(Oc2ccc(S(=O)(=O)NCCOCCOCCOCCNC(=O)COCC(=O)NCCOCCOCCOCCNS(=O)(=O)c3ccc(Oc4c(F)cc(/C=C(\C)C(=O)N=C(N)N)cc4F)cc3)cc2)c(F)c1)C(=O)N=C(N)N | 50.1 |
| CN1Cc2c(Cl)cc(Cl)cc2[C@H](c2cccc(S(=O)(=O)NCCOCCOCCNC(=O)NCCCC(CCCNC(=O)NCCOCCOCCNS(=O)(=O)c3cccc([C@@H]4CN(C)Cc5c(Cl)cc(Cl)cc54)c3)(CCCNC(=O)NCCOCCOCCNS(=O)(=O)c3cccc([C@@H]4CN(C)Cc5c(Cl)cc(Cl)cc54)c3)NC(=O)CCC(=O)O)c2)C1 | 20 |
| CN1Cc2c(Cl)cc(Cl)cc2[C@H](c2cccc(S(=O)(=O)NCCOCCOCCNC(=O)CN(CC(=O)NCCOCCOCCNS(=O)(=O)c3cccc([C@@H]4CN(C)Cc5c(Cl)cc(Cl)cc54)c3)CC(=O)NCCOCCOCCNS(=O)(=O)c3cccc([C@@H]4CN(C)Cc5c(Cl)cc(Cl)cc54)c3)c2)C1 | 501 |
| CN1Cc2c(Cl)cc(Cl)cc2[C@H](c2cccc(S(=O)(=O)NCCOCCOCCNC(=O)CCC(CCC(=O)NCCOCCOCCNS(=O)(=O)c3cccc([C@@H]4CN(C)Cc5c(Cl)cc(Cl)cc54)c3)(CCC(=O)NCCOCCOCCNS(=O)(=O)c3cccc([C@@H]4CN(C)Cc5c(Cl)cc(Cl)cc54)c3)NC(=O)N(C)C[C@H](O)[C@@H](O)[C@H](O)[C@H](O)CO)c2)C1 | 7.94 |
